Assay results published in patent US20250205240A1, “COMBINATIONS” (Recurium IP Holdings, LLC, priority 2022, published 2025).

Columns and labels:
[1] = system: CRC769 PDX model (BRAFmt CRC); assay type: in vivo, female athymic nude Foxn1nu mice; conditions: ZN-c3 60 mg/kg QD p.o., encorafenib 20 mg/kg QD p.o., cetuximab 20 mg/kg BIW i.p., 28-day study
Description: (§1) PDX Models: Tumor fragments (CRC769, CRC563, CTG-1009) were brought out of cryopreservation and implanted into female athymic nude Foxn1nu mice. Fragments were allowed to grow then excised once an appropriate volume was reached. A tumor slurry was made of 50% freshly harvested tumors minced to small tumor fragments in PBS and 50% Matrigel. The tumor slurry was injected subcutaneously into 6-8 week old female athymic nude Foxn1nu mice on the flank.
(§2) Grouping and treatments started when the mean tumor volume reached about 220 mm^3 (with individual tumors in the range of 200-240 mm^3). Vehicle animals were treated daily with 10 mL/kg HP-β-CD p.o. (oral gavage). Encorafenib was prepared weekly in 0.5% carboxymethyl cellulose: 0.5% Tween 80:99% deionized water and dosed daily (QD) at the indicated doses orally (p.o.) (see Tables 4 and 5 for dosage amounts). ZN-c3 was prepared daily in 20% HP-B-CD and dosed daily at the indicated doses p.o. (see Tables 4 and 5 for dosage amounts). […] Body weight and tumor volume of all animals was measured twice weekly throughout the studies that were 21 or 22 days or 3 weeks in duration (for CDX models HT-29 and LS411N) or that were 28 days or 4 weeks in duration (for PDX models CRC769, CRC563 and CTG-1009). The measurement of tumor size was performed with a caliper and the tumor volume (mm3) was estimated using the formula: TV=a×b2/2 throughout the study, where “a” and “b” is long and short diameters of a tumor, respectively. Animals were euthanized when their individual tumor burden exceeded 2000 mm^3 or is in a continuing deteriorating condition or close to a comatose state.

[2] = system: CRC563 PDX model (BRAFmt CRC); assay type: in vivo, female athymic nude Foxn1nu mice; conditions: ZN-c3 60 mg/kg QD p.o., encorafenib 20 mg/kg QD p.o., cetuximab 20 mg/kg BIW i.p., 28-day study
Description: as §1, §2

[3] = system: CTG-1009 PDX model (BRAFmt CRC); assay type: in vivo, female athymic nude Foxn1nu mice; conditions: ZN-c3 60 mg/kg QD p.o., encorafenib 20 mg/kg QD p.o., cetuximab 15 mg/kg BIW i.p., 28-day study
Description: as §1, §2

HT-29 cell line = assay: In vitro tumor cell proliferation assay (3D spheroid, 3D CTG), HT-29; assay type: cell-based; conditions: Homo sapiens
Description: (§3) Cell suspensions containing 1.5×10^3 total cells in 100 μL culture media were deposited in each well of an ultra-low attachment 96 well plate. Plates were incubated at 37° C. with […] and 5% CO2 for 72 h to allow for spheroid formation. […] ZN-c3 and/or Encorafenib compounds in DMSO were deposited into the plates using an automated drug dispenser at the indicated concentrations. Total DMSO content was normalized to 0.1% of the total volume in all assay conditions. Plates were sealed with breathable film to reduce evaporation and incubated at 37° C. with […] and 5% CO2 for 192 h. After 192 h, plates were removed from the incubator and allowed to come to room temperature. 100 μL room temperature 3D CTG reagent (Promega, Cat #G9683) was added to each well. Plates were agitated at 520 revolutions per minute (rpm) for 5 mins, allowed to stabilize protected from light for 30 mins, then luminescence was measured on an M5e plate reader (SpectraMax). Percent viability was calculated as percentage of cell viability relative to DMSO-only vehicle control.

[4] = system: HT-29 CDX model (BRAFmt CRC); assay type: in vivo, BALB/c nude mice; conditions: ZN-c3 60 mg/kg QD p.o., encorafenib 15 mg/kg QD p.o., cetuximab 15 mg/kg BIW i.p.; for TGI: 21- or 22-day study
Description: (§4) CDX Models: 6-8 week old BALB/c nude mice were inoculated subcutaneously on the right flank with the single cell suspension of 95% viable tumor cells (5×10^6) in 100 μL RPMI 1640 without serum (COLO205), 95% viable tumor cells (2×10^6) in 100 μL McCoy's 5a Medium Modified without serum (HT-29), or 95% viable tumor cells (2×106) in 100 μL RPMI 1640 and Matrigel mixture (1:1 ratio) without serum (LS411N).
as §2

[5] = system: LS411N CDX model (BRAFmt CRC); assay type: in vivo, BALB/c nude mice; conditions: ZN-c3 60 mg/kg QD p.o., encorafenib 20 mg/kg QD p.o., cetuximab 15 mg/kg BIW i.p.; for TGI: 21- or 22-day study
Description: as §4, §2

LS411N cell line = assay: In vitro tumor cell proliferation assay (3D spheroid, 3D CTG), LS411N; assay type: cell-based; conditions: Homo sapiens, LS-411N, 192 h
Description: as §3

WEE1 = WEE1 (Homo sapiens, UniProt P30291); conditions: as provided in WO 2019/173082; cited from earlier work
Chain of WEE1 (P30291 whole entry, species assumed): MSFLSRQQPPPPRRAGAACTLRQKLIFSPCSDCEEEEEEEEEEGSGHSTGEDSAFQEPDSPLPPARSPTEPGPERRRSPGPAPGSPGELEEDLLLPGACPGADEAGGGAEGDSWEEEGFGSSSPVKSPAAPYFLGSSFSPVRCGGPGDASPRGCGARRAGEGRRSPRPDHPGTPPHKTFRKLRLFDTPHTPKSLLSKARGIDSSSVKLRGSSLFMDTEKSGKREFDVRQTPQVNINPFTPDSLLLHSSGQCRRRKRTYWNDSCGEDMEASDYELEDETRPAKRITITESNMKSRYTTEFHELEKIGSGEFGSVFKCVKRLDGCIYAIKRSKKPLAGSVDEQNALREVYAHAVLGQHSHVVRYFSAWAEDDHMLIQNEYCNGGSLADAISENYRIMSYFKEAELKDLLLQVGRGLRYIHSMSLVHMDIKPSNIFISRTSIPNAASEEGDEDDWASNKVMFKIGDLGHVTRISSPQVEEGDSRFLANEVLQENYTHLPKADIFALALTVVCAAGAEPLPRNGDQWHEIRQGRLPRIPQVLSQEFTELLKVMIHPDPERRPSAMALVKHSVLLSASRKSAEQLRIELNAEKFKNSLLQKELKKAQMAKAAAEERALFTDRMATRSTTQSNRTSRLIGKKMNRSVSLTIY

[6] = HT-29 spheroids, 192 h, 250 nM ZN-c3, 1.6 nM encorafenib, relative to 0.1% DMSO
[7] = LS411N spheroids, 250 nM ZN-c3, 25 nM encorafenib, relative to 0.1% DMSO

With C=CCn1c(=O)c2cnc(Nc3ccc(N4CCN(C)CC4)cc3)nc2n1-c1ccc2c(n1)[C@@](O)(CC)CC2 [ZN-c3, (R)-2-allyl-1-(7-ethyl-7-hydroxy-6,7-dihydro-5H-cyclopenta[b]pyridin-2-yl)-6-((4-(4-methylpiperazin-1-yl)phenyl)amino)-1,2-dihydro-3H-pyrazolo[3,4-d]pyrimidin-3-one] as the compound, how does the TGI [1] read?
The TGI was 19.0.

And the TGI [2]?
The TGI was 43.4.

And the TGI [3]?
The TGI was 51.2.

What about the inhibition at 0.3 µM (HT-29 cell line; HT-29, 192 h) of the same compound?
Its inhibition at 0.3 µM is 34.5%.

And the inhibition at 0.25 µM (HT-29 cell line; [6])?
The inhibition at 0.25 µM was 39%.

And the “Tumor Vol. Change from D 14-D 21 (%)” value [4]?
Its value is 36.3%.

What about the TGI [4] of the same compound?
Its TGI is 15.0.

What about the “Tumor Vol. Change from D 14-D 21 (%)” value [5] of the same compound?
The value was 35.8%.

What about the TGI [5] of the same compound?
Its TGI is 69.0.

And the inhibition at 0.35 µM (LS411N cell line)?
The inhibition at 0.35 µM was 21.6%.

And the inhibition at 0.25 µM (LS411N cell line; [7])?
The inhibition at 0.25 µM was 27.5%.

And the “activity against WEE1” value (WEE1)?
Its value is “active against WEE1”.

Which TGI [1] does the source give for COC(=O)N[C@@H](C)CNc1nccc(-c2cn(C(C)C)nc2-c2cc(Cl)cc(NS(C)(=O)=O)c2F)n1 [Encorafenib, encorafenib, reference compound] here?
Its TGI is 69.0.

What about the TGI [3] of the same compound?
The TGI was 80.0.

And the inhibition at 0.01 µM (HT-29 cell line; HT-29, 192 h)?
Its inhibition at 0.01 µM is 75.8%.

And the inhibition at 0.0016 µM (HT-29 cell line; [6])?
The inhibition at 0.0016 µM was 39.5%.

What about the “Tumor Vol. Change from D 14-D 21 (%)” value [4] of the same compound?
Its value is 36.9%.

What about the TGI [4] of the same compound?
The TGI was 42.6.

What about the “Tumor Vol. Change from D 14-D 21 (%)” value [5] of the same compound?
Its value is 36.6%.

And the TGI [5]?
The TGI was 64.6.

What about the inhibition at 0.025 µM (LS411N cell line; [7]) of the same compound?
The inhibition at 0.025 µM was 28.3%.
